Source: US10612051B2, “Method of producing bioproducts” (White Dog Labs, Inc., priority 2015, dated 2020)

Experiments:
[1] = Extraction of aqueous bioproduct solutions with 1-butene in a pressure vessel (distribution coefficient); format: physicochemical; conditions: for DC (bioproduct distribution coefficient): 1-butene / aqueous phase, Table 1; for Extract Bioproduct conc. (%) / Raffinate Bioproduct conc. (%): 100 g aqueous solution, 2% initial bioproduct, mixed with 100 g 1-butene; for Extract Bioproduct conc. (%): extract phase; for Raffinate Bioproduct conc. (%): raffinate phase
Method: (§1) 100 g (grams) aqueous solutions of various bioproducts were prepared. Bioproduct initial concentration was 2%. Each of these bioproduct aqueous solutions was extracted in a pressure vessel by mixing with 100 g 1-butene (the olefin). The amount of formed extract and formed raffinate and the concentration (conc.) of the bioproduct in each were determined. Theses concentrations were used to calculate the bioproduct distribution coefficient (DC). Table 2 compares the found distribution coefficients to those of extracting with dimethyl ether (DME).

[2] = Extraction with dimethyl ether (DME), distribution coefficient for comparison; format: physicochemical; conditions: extracting with dimethyl ether
Method: as §1

[3] = 25° C.; cited from earlier work

| Compound | DC (bioproduct distribution coefficient) [1] | Extract Bioproduct conc. (%) [1] | Raffinate Bioproduct conc. (%) [1] | Distribution coefficient DME [2] | n-butanol content of saturated aqueous solution [3] |
| --- | --- | --- | --- | --- | --- |
| CCCC=O [Butanal] | 6.96 | 1.78% | 0.26% | 5.11 |  |
| CCCC(C)=O [Example 2-Pentanone, 2-Pentanone] | 7.95 | 1.81% | 0.23% | 5.82 |  |
| O=Cc1ccco1 [Furfural] | 3.35 | 1.56% | 0.47% | 3.79 |  |
| O=C1CCCO1 [Gamma Butyrolactone] | 3.69 | 1.60% | 0.43% | 3.14 |  |
| O=C(O)CCCC(=O)O [Glutaric Acid] | 0.27 | 0.44% | 1.51% | 1.88 |  |
| CCCC(=O)OC [Methyl Butyrate] | 53.8 | 2.00% | 0.038% | 20.73 |  |
| CCC(=O)O [Propionic Acid] | 1.01 | 1.00% | 1.00% | 2.27 |  |
| O=C(O)CCC(=O)O [Succinic Acid] | 0.11 | 0.158% | 1.77% | 1.01 |  |
| CCCCO [n-butanol] |  |  |  |  | about 7.3 wt % |
